Source: patent US8637672B2 (Deciphera Pharmaceuticals, LLC, priority 2010, dated 2014)
Read-outs that look alike come from different tables or passages of the source.

Key:
VEGFR-2 (KDR kinase) = VEGFR-2 (KDR kinase) (Homo sapiens, UniProt P35968, DEL940-989/E990V); details: values published in the '188/'556 applications; cited from earlier work
RON kinase [1] = target: T1, RON kinase (Homo sapiens, UniProt Q04912); test: RON Kinase Assay; type: biochemical; details: for Fold Selectivity RON/MET: ratio RON IC50 / MET IC50; for IC50: methods of the Biological Data section
T1 construct: GST tagged recombinant human RON, amino acids 983-1400; GST; host or cells: insect cells
T1 sequence (Q04912 983-1400): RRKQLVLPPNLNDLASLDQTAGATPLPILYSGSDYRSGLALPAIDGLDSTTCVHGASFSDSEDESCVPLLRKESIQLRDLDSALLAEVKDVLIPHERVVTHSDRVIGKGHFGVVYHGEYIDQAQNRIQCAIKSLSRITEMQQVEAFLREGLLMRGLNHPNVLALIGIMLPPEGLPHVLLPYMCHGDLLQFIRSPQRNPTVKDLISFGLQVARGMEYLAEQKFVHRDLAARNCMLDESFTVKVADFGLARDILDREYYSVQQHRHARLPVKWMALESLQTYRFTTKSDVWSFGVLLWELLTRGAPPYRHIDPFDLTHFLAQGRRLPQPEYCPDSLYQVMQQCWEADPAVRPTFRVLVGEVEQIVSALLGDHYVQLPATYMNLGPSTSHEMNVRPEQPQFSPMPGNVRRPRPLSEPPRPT
Experimental: Activity of RON kinase was determined by a radioactive filtration binding assay where incorporation of ^33P from ^33P-γ-ATP to the substrate was measured. In this assay, detection of ^33P was indicative of RON phosphorylation activity which was directly proportional to the amount of phosphorylated peptide substrate ([…], SEQ ID NO: 4). Initially, the reaction mixture contained: 400 nM RON, 20 mM HEPES, pH 7.5, 10 mM MgCl2, 2 mM MnCl2, 1 mM EGTA, 0.02% Brij 35, 0.02 mg/mL BSA, 0.1 mM Na3VO4, and 2 mM DTT. The reaction mixture was incubated with compound at room temperature for 30 minutes. To initiate the reaction, an equal volume of 20 μM ATP and 0.4 mg/mL peptide substrate were added and then incubated at room temperature for 2 hours. The final assay conditions were: 200 nM RON, 10 μM ATP, 0.2 mg/mL substrate 20 mM HEPES, pH 7.5, 10 mM MgCl2, 1 mM EGTA, 0.02% Brij 35, 0.02 mg/mL BSA, 0.1 mM Na3VO4, 2 mM DTT, and 1% DMSO. IC50 values were calculated from a series of % Activity values determined at a range of inhibitor concentrations using software routines as implemented in the GraphPad Prism software package.
GST tagged recombinant human RON, amino acids 983-1400. Expressed in insect cells.

RON kinase [2] = target: T1, RON kinase; details: values published in the '188/'556 applications; cited from earlier work
c-MET kinase = target: T2, c-MET kinase (Homo sapiens, UniProt P08581); details: values published in the '188 application (pp. 96-97); cited from earlier work
T2 construct: His6 with TEV-site leader (N); purchased Invitrogen PV3143
T2 sequence (P08581 with tags, fused parts or gaps): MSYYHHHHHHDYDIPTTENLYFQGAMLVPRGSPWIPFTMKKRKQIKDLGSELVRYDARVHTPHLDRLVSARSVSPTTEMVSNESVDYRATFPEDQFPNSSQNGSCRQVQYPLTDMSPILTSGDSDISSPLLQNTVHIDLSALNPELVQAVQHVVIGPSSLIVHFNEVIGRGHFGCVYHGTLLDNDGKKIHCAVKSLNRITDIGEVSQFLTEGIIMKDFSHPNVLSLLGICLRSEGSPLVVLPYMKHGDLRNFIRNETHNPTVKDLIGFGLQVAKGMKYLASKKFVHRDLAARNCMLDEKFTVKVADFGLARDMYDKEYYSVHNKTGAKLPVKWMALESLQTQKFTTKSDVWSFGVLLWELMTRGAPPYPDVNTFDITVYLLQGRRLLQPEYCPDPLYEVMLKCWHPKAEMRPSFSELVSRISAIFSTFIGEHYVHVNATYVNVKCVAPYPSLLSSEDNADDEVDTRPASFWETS

RET kinase = target: T3, RET kinase (Homo sapiens, UniProt P07949); test: RET Kinase Assay; type: biochemical; details: for Fold Selectivity RET/MET: ratio RET IC50 / MET IC50; for IC50: methods of the Biological Data section
T3 construct: GST tagged recombinant human RET, amino acids 658-1114; GST; purchased Invitrogen; host or cells: insect cells
T3 sequence (P07949 658-1114): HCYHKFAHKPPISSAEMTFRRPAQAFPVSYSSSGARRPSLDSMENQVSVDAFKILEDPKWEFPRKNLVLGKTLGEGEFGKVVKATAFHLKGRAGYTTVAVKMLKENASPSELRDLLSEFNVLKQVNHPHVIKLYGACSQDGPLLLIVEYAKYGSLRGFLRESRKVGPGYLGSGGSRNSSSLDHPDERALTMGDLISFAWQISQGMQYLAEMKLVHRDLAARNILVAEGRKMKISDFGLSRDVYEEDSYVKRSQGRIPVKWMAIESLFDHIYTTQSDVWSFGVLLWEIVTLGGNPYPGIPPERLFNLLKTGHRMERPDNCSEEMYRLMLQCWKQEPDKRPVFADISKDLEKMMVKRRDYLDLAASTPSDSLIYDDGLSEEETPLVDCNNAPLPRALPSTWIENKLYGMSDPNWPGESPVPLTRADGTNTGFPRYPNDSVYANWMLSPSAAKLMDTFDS
Experimental: Activity of RET kinase was determined by following the production of ADP from the kinase reaction through coupling with the pyruvate kinase/lactate dehydrogenase system (see e.g., Schindler et al. Science (2000) 289: 1938-1942). In this assay, the oxidation of NADH (thus the decrease at A340 nm) was continuously monitored spectrophotometrically. The reaction mixture (100 μl) contained RET (amino acid residues 658-1114, from Invitrogen, 2 nM), polyE4Y (1.5 mg/ml), MgCl2 (18 mM), pyruvate kinase (4 units), lactate dehydrogenase (0.7 units), phosphoenol pyruvate (1 mM), and NADH (0.28 mM) in 90 mM […] buffer containing 0.2% octyl-glucoside, 1 mM DTT and 1% DMSO, pH 7.5. Test compounds were incubated with RET kinase and other reaction reagents at 22° C. for <2 min before ATP (500 μM) was added to start the reaction. The absorption at 340 nm was monitored continuously for 3 hours at 30° C. on BioTek Synergy 2 Reader. The reaction rate was calculated using the 1 to 2 h time frame. Percent inhibition was obtained by comparison of reaction rate with that of a control (i.e., with no test compound). IC50 values were calculated from a series of percent inhibition values determined at a range of inhibitor concentrations using software routines as implemented in the GraphPad Prism software package.
GST tagged recombinant human RET, amino acids 658-1114. Expressed in insect cells.

Chain of VEGFR-2 (KDR kinase) (P35968 with tags, fused parts or gaps DEL940-989/E990V): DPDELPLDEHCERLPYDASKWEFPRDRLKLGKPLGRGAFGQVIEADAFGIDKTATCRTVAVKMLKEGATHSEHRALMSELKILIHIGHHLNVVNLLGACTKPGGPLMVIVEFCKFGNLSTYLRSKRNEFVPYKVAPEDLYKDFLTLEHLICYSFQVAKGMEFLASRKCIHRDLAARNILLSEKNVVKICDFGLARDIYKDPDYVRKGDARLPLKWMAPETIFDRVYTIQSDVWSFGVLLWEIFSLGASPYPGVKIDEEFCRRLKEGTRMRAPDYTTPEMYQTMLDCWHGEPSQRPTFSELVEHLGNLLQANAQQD

Compound | IC50 (VEGFR-2 (KDR kinase)) [nM] | Fold Selectivity RON/MET (RON kinase [1]) | IC50 (RON kinase [2]) [nM] | IC50 (c-MET kinase) [nM] | Fold Selectivity RET/MET (RET kinase) | IC50 (RON kinase [1]) [nM] | IC50 (RET kinase) [nM]
O=C(Nc1cc(Oc2cc(F)c(NC(=O)C3(C(=O)Nc4ccc(F)cc4)CC3)cc2F)ccn1)N1CC(CO)C1 [Compound H] | 10 | 0.75 | 3 | 4 | 7 | – | –
CN1CCN(C2CCN(C(=O)Nc3cc(Oc4cc(F)c(NC(=O)C5(C(=O)Nc6ccc(F)cc6)CC5)cc4F)ccn3)CC2)CC1 [Compound G] | 100 | 0.04 | 2 | 53 | 0.81 | – | –
CC(=O)Nc1cc(Oc2ccc(NC(=O)C3(C(=O)Nc4ccc(F)cc4)CC3)c(F)c2)ccn1 [Compound E, N-(4-(2-acetamidopyridin-4-yloxy)-2-fluorophenyl)-N′-(4-fluorophenyl)cyclopropane-1,1-dicarboxamide] | – | 3.85 | – | – | 1.65 | 100 | 43
CC(=O)Nc1cc(Oc2cc(F)c(NC(=O)C3(C(=O)Nc4ccc(F)cc4)CC3)cc2F)ccn1 [Compound D, N-(4-(2-acetamidopyridin-4-yloxy)-2,5-difluorophenyl)-N′-(4-fluorophenyl)cyclopropane-1,1-dicarboxamide] | – | >1,250 | – | – | >825 | ≥ 5000 | > 3300
